According to the supplement of paper PMC10627819:

Columns and labels:
Test in all cases: fitness (endpoint OD595 vs no drug) (fraction); higher = more growth
S. aureus Newman = test system: S. aureus Newman
Procedure, shortened: (§1)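 Fitness compares growth at the stationary-phase transition with the robust mean of no-drug control wells, as a ratio of optical densities. The ratio is capped at 1. Wells of 384-well plates held 30 µl, or 55 µl for S. pneumoniae, inoculated at OD595 0.01. Readings at OD595 every 30 min for 14 h at 37 °C were corrected against the first reading.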

S. pneumoniae D39V = test system: S. pneumoniae D39V
Procedure, shortened: as §1

S. aureus DSM 20231 = test system: S. aureus DSM 20231
Procedure, shortened: as §1
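Note: OD595 on entry to stationary phase over no-drug wells; at most 1.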

CO/N=C(\C(=O)N[C@@H]1C(=O)N2C(C(=O)O)=C(COC(C)=O)CS[C@H]12)c1csc(N)n1 [Cefotaxime] + CO/N=C(\C(=O)N[C@@H]1C(=O)N2C(C(=O)[O-])=C(C[N+]3(C)CCCC3)CS[C@H]12)c1csc(N)n1 [Cefepime]
Conditions | fitness
S. aureus DSM 20231, first compound 0.039 µg/mL, partner 0.125 µg/mL | 0.782
S. aureus DSM 20231, first compound 0.039 µg/mL, partner 0.25 µg/mL | 0.847
S. aureus DSM 20231, first compound 0.039 µg/mL, partner 0.5 µg/mL | 0.824
S. aureus DSM 20231, first compound 0.078 µg/mL, partner 0.125 µg/mL | 0.754
S. aureus DSM 20231, first compound 0.078 µg/mL, partner 0.25 µg/mL | 0.8
S. aureus DSM 20231, first compound 0.078 µg/mL, partner 0.5 µg/mL | 0.772
S. aureus DSM 20231, first compound 0.156 µg/mL, partner 0.125 µg/mL | 0.686
S. aureus DSM 20231, first compound 0.156 µg/mL, partner 0.25 µg/mL | 0.73
S. aureus DSM 20231, first compound 0.156 µg/mL, partner 0.5 µg/mL | 0.753
S. aureus DSM 20231, first compound 0.312 µg/mL, partner 0.125 µg/mL | 0.664
S. aureus DSM 20231, first compound 0.312 µg/mL, partner 0.25 µg/mL | 0.661
S. aureus DSM 20231, first compound 0.312 µg/mL, partner 0.5 µg/mL | 0.71
S. aureus Newman, first compound 0.078 µg/mL, partner 0.125 µg/mL | 0.75
S. aureus Newman, first compound 0.078 µg/mL, partner 0.25 µg/mL | 0.695
S. aureus Newman, first compound 0.078 µg/mL, partner 0.5 µg/mL | 0.696
S. aureus Newman, first compound 0.156 µg/mL, partner 0.125 µg/mL | 0.618
S. aureus Newman, first compound 0.156 µg/mL, partner 0.25 µg/mL | 0.577
S. aureus Newman, first compound 0.156 µg/mL, partner 0.5 µg/mL | 0.519
S. aureus Newman, first compound 0.312 µg/mL, partner 0.125 µg/mL | 0.469
S. aureus Newman, first compound 0.312 µg/mL, partner 0.25 µg/mL | 0.415
S. aureus Newman, first compound 0.312 µg/mL, partner 0.5 µg/mL | 0.36
S. aureus Newman, first compound 0.625 µg/mL, partner 0.125 µg/mL | 0.206
S. aureus Newman, first compound 0.625 µg/mL, partner 0.25 µg/mL | 0.178
S. aureus Newman, first compound 0.625 µg/mL, partner 0.5 µg/mL | 0.0892
S. aureus Newman, first compound 1.25 µg/mL, partner 0.125 µg/mL | 0.125
S. aureus Newman, first compound 1.25 µg/mL, partner 0.25 µg/mL | 0.0934
S. aureus Newman, first compound 1.25 µg/mL, partner 0.5 µg/mL | 0.049
S. aureus Newman, first compound 2.5 µg/mL, partner 0.125 µg/mL | 0.0454
S. aureus Newman, first compound 2.5 µg/mL, partner 0.25 µg/mL | 0.0501
S. aureus Newman, first compound 2.5 µg/mL, partner 0.5 µg/mL | 0.0407
S. pneumoniae D39V, first compound 0.0018 µg/mL, partner 0.007 µg/mL | ≥ 1
S. pneumoniae D39V, first compound 0.0018 µg/mL, partner 0.0078 µg/mL | ≥ 1
S. pneumoniae D39V, first compound 0.0018 µg/mL, partner 0.014 µg/mL | ≥ 1
S. pneumoniae D39V, first compound 0.0018 µg/mL, partner 0.0155 µg/mL | ≥ 1
S. pneumoniae D39V, first compound 0.0018 µg/mL, partner 0.028 µg/mL | 0.93
S. pneumoniae D39V, first compound 0.0018 µg/mL, partner 0.031 µg/mL | 0.926
S. pneumoniae D39V, first compound 0.0035 µg/mL, partner 0.007 µg/mL | 0.983
S. pneumoniae D39V, first compound 0.0035 µg/mL, partner 0.0078 µg/mL | 0.998
S. pneumoniae D39V, first compound 0.0035 µg/mL, partner 0.014 µg/mL | 0.994
S. pneumoniae D39V, first compound 0.0035 µg/mL, partner 0.0155 µg/mL | 0.996
S. pneumoniae D39V, first compound 0.0035 µg/mL, partner 0.028 µg/mL | 0.8
S. pneumoniae D39V, first compound 0.0035 µg/mL, partner 0.031 µg/mL | 0.89
S. pneumoniae D39V, first compound 0.007 µg/mL, partner 0.007 µg/mL | 0.94
S. pneumoniae D39V, first compound 0.007 µg/mL, partner 0.0078 µg/mL | 0.921
S. pneumoniae D39V, first compound 0.007 µg/mL, partner 0.014 µg/mL | 0.96
S. pneumoniae D39V, first compound 0.007 µg/mL, partner 0.0155 µg/mL | 0.891
S. pneumoniae D39V, first compound 0.007 µg/mL, partner 0.028 µg/mL | 0.629
S. pneumoniae D39V, first compound 0.007 µg/mL, partner 0.031 µg/mL | 0.553

CO/N=C(\C(=O)N[C@@H]1C(=O)N2C(C(=O)O)=C(COC(C)=O)CS[C@H]12)c1csc(N)n1 [Cefotaxime] + CO[C@@]12[C@H](COC(N)=O)C3=C(C(=O)C(C)=C(N)C3=O)N1C[C@@H]1N[C@@H]12 [Mitomycin C]
Conditions | fitness
S. aureus DSM 20231, first compound 0.039 µg/mL, partner 0.0156 µg/mL | 0.581
S. aureus DSM 20231, first compound 0.039 µg/mL, partner 0.0312 µg/mL | 0.532
S. aureus DSM 20231, first compound 0.039 µg/mL, partner 0.0625 µg/mL | 0.607
S. aureus DSM 20231, first compound 0.078 µg/mL, partner 0.0156 µg/mL | 0.581
S. aureus DSM 20231, first compound 0.078 µg/mL, partner 0.0312 µg/mL | 0.577
S. aureus DSM 20231, first compound 0.078 µg/mL, partner 0.0625 µg/mL | 0.537
S. aureus DSM 20231, first compound 0.156 µg/mL, partner 0.0156 µg/mL | 0.538
S. aureus DSM 20231, first compound 0.156 µg/mL, partner 0.0312 µg/mL | 0.562
S. aureus DSM 20231, first compound 0.156 µg/mL, partner 0.0625 µg/mL | 0.54
S. aureus DSM 20231, first compound 0.312 µg/mL, partner 0.0156 µg/mL | 0.483
S. aureus DSM 20231, first compound 0.312 µg/mL, partner 0.0312 µg/mL | 0.495
S. aureus DSM 20231, first compound 0.312 µg/mL, partner 0.0625 µg/mL | 0.457
S. aureus Newman, first compound 0.078 µg/mL, partner 0.0156 µg/mL | 0.577
S. aureus Newman, first compound 0.078 µg/mL, partner 0.0312 µg/mL | 0.574
S. aureus Newman, first compound 0.078 µg/mL, partner 0.0625 µg/mL | 0.422
S. aureus Newman, first compound 0.156 µg/mL, partner 0.0156 µg/mL | 0.48
S. aureus Newman, first compound 0.156 µg/mL, partner 0.0312 µg/mL | 0.414
S. aureus Newman, first compound 0.156 µg/mL, partner 0.0625 µg/mL | 0.234
S. aureus Newman, first compound 0.312 µg/mL, partner 0.0156 µg/mL | 0.313
S. aureus Newman, first compound 0.312 µg/mL, partner 0.0312 µg/mL | 0.22
S. aureus Newman, first compound 0.312 µg/mL, partner 0.0625 µg/mL | 0.138
S. pneumoniae D39V, first compound 0.0018 µg/mL, partner 0.001075 µg/mL | 0.978
S. pneumoniae D39V, first compound 0.0018 µg/mL, partner 0.002 µg/mL | 0.789
S. pneumoniae D39V, first compound 0.0018 µg/mL, partner 0.00215 µg/mL | 0.949
S. pneumoniae D39V, first compound 0.0018 µg/mL, partner 0.004 µg/mL | 0.81
S. pneumoniae D39V, first compound 0.0018 µg/mL, partner 0.0043 µg/mL | 0.863
S. pneumoniae D39V, first compound 0.0018 µg/mL, partner 0.008 µg/mL | 0.702
S. pneumoniae D39V, first compound 0.0035 µg/mL, partner 0.001075 µg/mL | 0.976
S. pneumoniae D39V, first compound 0.0035 µg/mL, partner 0.002 µg/mL | 0.781
S. pneumoniae D39V, first compound 0.0035 µg/mL, partner 0.00215 µg/mL | 0.922
S. pneumoniae D39V, first compound 0.0035 µg/mL, partner 0.004 µg/mL | 0.767
S. pneumoniae D39V, first compound 0.0035 µg/mL, partner 0.0043 µg/mL | 0.838
S. pneumoniae D39V, first compound 0.0035 µg/mL, partner 0.008 µg/mL | 0.647
S. pneumoniae D39V, first compound 0.007 µg/mL, partner 0.001075 µg/mL | 0.895
S. pneumoniae D39V, first compound 0.007 µg/mL, partner 0.002 µg/mL | 0.694
S. pneumoniae D39V, first compound 0.007 µg/mL, partner 0.00215 µg/mL | 0.834
S. pneumoniae D39V, first compound 0.007 µg/mL, partner 0.004 µg/mL | 0.679
S. pneumoniae D39V, first compound 0.007 µg/mL, partner 0.0043 µg/mL | 0.802
S. pneumoniae D39V, first compound 0.007 µg/mL, partner 0.008 µg/mL | 0.637

fitness, S. aureus Newman, one replicate
Conditions | first compound 0.625 µg/mL | first compound 1.25 µg/mL | first compound 2.5 µg/mL
partner 0.0156 µg/mL | 0.0313 | 0.0209 | 0.0581
partner 0.0312 µg/mL | 0.025 | 0.0017 | 0.0229
partner 0.0625 µg/mL | 0.0258 | 0 | 0.0272
